{"source": "BindingDB's records for doi:10.1007/bf00168557", "about": "(Boehringer Ingelheim Italia, 1995)", "key": {"[1]": {"biological_target": "T1, 5-hydroxytryptamine receptor 3A (Rattus norvegicus, UniProt P35563)", "T1 sequence (P35563 whole entry)": "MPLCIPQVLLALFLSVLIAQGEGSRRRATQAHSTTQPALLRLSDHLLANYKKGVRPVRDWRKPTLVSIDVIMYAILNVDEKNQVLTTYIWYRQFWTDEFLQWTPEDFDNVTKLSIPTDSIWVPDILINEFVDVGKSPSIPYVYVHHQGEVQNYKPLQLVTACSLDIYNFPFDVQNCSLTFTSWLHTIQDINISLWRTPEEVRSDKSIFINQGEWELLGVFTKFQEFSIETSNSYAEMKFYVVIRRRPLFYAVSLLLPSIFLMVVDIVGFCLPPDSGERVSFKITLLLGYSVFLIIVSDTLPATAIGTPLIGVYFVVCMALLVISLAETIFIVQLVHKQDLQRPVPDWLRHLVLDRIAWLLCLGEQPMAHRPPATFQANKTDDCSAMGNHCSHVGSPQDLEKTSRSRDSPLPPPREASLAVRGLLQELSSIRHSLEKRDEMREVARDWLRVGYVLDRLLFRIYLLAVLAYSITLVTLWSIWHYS"}, "[2]": {"biological_target": "T2, Alpha-1A adrenergic receptor (Rattus norvegicus, UniProt P43140)", "T2 sequence (P43140 whole entry)": "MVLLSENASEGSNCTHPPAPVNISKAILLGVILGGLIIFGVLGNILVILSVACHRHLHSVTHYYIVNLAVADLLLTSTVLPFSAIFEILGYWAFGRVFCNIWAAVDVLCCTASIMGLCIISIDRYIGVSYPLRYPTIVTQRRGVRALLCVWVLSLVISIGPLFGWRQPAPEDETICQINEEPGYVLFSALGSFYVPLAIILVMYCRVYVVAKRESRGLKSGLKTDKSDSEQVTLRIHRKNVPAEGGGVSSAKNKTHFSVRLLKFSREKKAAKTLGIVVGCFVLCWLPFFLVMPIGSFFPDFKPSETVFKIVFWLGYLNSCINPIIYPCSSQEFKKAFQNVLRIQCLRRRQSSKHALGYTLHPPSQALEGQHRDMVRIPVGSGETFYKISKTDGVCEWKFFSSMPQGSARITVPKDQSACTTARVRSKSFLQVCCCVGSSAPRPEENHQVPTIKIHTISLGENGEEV"}, "[3]": {"biological_target": "5-hydroxytryptamine receptor 1D (Rattus norvegicus, UniProt P28565)", "sequence (P28565 whole entry)": "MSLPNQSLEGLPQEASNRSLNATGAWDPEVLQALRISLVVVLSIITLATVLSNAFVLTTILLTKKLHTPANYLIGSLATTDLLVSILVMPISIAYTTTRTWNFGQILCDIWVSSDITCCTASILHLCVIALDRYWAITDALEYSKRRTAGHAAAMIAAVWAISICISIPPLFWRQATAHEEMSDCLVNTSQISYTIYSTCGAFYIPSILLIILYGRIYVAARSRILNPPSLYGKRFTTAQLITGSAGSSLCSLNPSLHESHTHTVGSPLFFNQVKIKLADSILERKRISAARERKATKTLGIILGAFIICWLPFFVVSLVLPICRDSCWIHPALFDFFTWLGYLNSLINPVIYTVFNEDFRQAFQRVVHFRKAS"}, "[4]": {"biological_target": "5-hydroxytryptamine receptor 4 (Rattus norvegicus, UniProt Q62758)", "sequence (Q62758 whole entry)": "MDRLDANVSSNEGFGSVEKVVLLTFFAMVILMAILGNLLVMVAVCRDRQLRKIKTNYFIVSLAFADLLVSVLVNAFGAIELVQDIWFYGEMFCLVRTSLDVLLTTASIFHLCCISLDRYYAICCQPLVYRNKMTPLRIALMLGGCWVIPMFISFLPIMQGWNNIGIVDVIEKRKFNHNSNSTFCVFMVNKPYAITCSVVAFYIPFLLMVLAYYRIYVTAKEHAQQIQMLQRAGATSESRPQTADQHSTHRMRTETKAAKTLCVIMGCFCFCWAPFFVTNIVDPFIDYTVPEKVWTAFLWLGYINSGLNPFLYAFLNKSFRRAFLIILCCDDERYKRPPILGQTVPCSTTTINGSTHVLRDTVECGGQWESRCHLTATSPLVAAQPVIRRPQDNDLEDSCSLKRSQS"}, "[5]": {"biological_target": "5-hydroxytryptamine receptor 1B (Rattus norvegicus, UniProt P28564)", "sequence (P28564 whole entry)": "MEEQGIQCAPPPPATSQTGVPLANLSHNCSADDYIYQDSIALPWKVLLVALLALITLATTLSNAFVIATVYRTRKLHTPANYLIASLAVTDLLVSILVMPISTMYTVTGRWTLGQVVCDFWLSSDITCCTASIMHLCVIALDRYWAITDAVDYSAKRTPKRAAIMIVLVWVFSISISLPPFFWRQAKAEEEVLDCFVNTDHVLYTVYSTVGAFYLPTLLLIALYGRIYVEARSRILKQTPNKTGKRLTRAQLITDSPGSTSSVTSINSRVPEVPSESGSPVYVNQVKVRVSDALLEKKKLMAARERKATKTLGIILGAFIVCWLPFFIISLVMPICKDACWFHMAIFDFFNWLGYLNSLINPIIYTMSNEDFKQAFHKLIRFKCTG"}, "[6]": {"biological_target": "T3, 5-hydroxytryptamine receptor 1A (Rattus norvegicus, UniProt P19327)", "T3 sequence (P19327 whole entry)": "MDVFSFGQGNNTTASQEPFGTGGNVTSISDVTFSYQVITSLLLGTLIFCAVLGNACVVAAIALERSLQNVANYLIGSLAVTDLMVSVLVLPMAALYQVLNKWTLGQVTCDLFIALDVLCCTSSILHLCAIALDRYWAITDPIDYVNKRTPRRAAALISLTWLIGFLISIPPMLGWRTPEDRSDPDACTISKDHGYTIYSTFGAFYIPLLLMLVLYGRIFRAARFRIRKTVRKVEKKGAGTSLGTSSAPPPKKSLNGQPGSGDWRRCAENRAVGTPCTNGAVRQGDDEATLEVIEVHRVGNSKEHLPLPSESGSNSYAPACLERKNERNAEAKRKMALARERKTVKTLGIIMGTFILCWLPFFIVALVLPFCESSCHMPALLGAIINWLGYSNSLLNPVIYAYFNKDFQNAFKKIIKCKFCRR"}, "[7]": {"biological_target": "T4, 5-hydroxytryptamine receptor 2C (Rattus norvegicus, UniProt P08909)", "T4 sequence (P08909 whole entry)": "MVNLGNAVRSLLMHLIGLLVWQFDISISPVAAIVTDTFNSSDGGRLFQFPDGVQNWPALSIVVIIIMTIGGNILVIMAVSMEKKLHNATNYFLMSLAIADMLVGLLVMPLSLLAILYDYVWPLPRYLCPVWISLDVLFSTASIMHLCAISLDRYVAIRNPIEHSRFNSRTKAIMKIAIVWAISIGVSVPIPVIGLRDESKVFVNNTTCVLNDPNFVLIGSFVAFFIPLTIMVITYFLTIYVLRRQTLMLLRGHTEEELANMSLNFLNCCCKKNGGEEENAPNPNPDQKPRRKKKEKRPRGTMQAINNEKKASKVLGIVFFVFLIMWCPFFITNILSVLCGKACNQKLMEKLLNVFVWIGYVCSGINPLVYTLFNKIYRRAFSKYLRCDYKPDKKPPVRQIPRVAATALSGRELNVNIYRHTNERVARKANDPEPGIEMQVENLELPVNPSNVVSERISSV"}}, "note": "Where “and” joins values, the source holds several entries; their conditions need not be identical. Identical values can stand only once.", "data": [{"smiles": "CN1C2CCC1CC(OC(=O)c1cc(Cl)cc(Cl)c1)C2", "note": "(centres undefined) [MDL 72222]", "values": [{"measurement": "Ki", "setting": "[1]", "result": 0.8, "unit": "nM"}]}, {"smiles": "COc1cccc(OC)c1OCCNCC1Oc2ccccc2OC1c1ccccc1", "note": "(centres undefined) [NSC_185453]", "values": [{"measurement": "Ki", "setting": "[2]", "result": 0.3, "unit": "nM"}]}, {"smiles": "O=C1CC2(CCCC2)CC(=O)N1CCCCN1CCN(c2ncccn2)CC1", "note": "[BUSPAR]", "values": [{"measurement": "Ki", "setting": "[1]", "result": "> 10000", "unit": "nM"}, {"measurement": "Ki", "setting": "[3]", "result": "> 10000", "unit": "nM"}, {"measurement": "Ki", "setting": "[4]", "result": "> 10000", "unit": "nM"}]}, {"smiles": "O=c1[nH]c2ccccc2n1CCN1CCN(c2ccc(C(F)(F)F)cc2)CC1", "note": "[CAS_127941]", "values": [{"measurement": "Ki", "setting": "[5]", "result": 2090, "unit": "nM"}, {"measurement": "Ki", "setting": "[1]", "result": "> 10000", "unit": "nM"}, {"measurement": "Ki", "setting": "[6]", "result": "47.9 nM and 19.1 nM"}, {"measurement": "Ki", "setting": "[3]", "result": 2510, "unit": "nM"}, {"measurement": "Ki", "setting": "[7]", "result": 3980, "unit": "nM"}, {"measurement": "Ki", "setting": "[4]", "result": "> 10000", "unit": "nM"}]}, {"smiles": "CCn1c(=O)n(C(=O)NC2CC3CCC(C2)N3C)c2ccccc21", "note": "(centres undefined) [BIMU 1]", "values": [{"measurement": "Ki", "setting": "[4]", "result": 0.19, "unit": "nM"}]}, {"smiles": "CCCN(CCC)C1CCc2cccc(O)c2C1", "note": "(centres undefined)", "values": [{"measurement": "Ki", "setting": "[1]", "result": "> 10000", "unit": "nM"}, {"measurement": "Ki", "setting": "[4]", "result": "> 10000", "unit": "nM"}]}]}
